Data as given in patent US8507460B2, “Substituted 3′,5′-cyclic phosphates of purine nucleotide compounds and pharmaceutical compositions for the treatment of viral infections” (priority 2011, dated 2013).

Legend:
HCV genotype 1b replicon = assay: HCV Replicon Assay (Zluc luciferase reporter); format: cell-based
Experimental: Huh-7-derived cell line (Zluc) that harbors an HCV genotype 1b replicon and a luciferase reporter gene was grown in Dulbecco's Modified Eagle Medium (DMEM) supplemented with 10% fetal bovine serum, 2 mM GlutaMAX, 1% MEM nonessential amino acids, 100 IU/mL penicillin, 100 μg/mL streptomycin, and 0.5 mg/mL Geneticin® (G418). For dose response testing the cells were seeded in 96-well plates at 7.5×10^3 cells per well in a volume of […], and incubated at 37° C./5% CO2. Drug solutions were made up freshly in Huh-7 media as 2× stocks. […] 5-fold dilutions were prepared from these stocks in DMEM without G418. At least three hours after Zluc cells were seeded, drug treatment was initiated by adding 50 μL of drug dilutions to the plates in duplicate. Final concentrations of drug ranged from 100 μM to 0.0000512 μM. Cells were then incubated at 37° C./5% CO2. Alternatively, compounds were tested at two concentrations (1 μM and 10 μM). […] After 72 hours of incubation, the inhibition of HCV replication was measured by quantification of photons emitted after mono-oxygenation of 5′-fluoroluciferin to oxyfluoroluciferin by firefly luciferase. For this, media was removed from the plates via gentle tapping. Fifty microliters of ONE-glo luciferase assay reagent was added to each well. The plates were shaken gently for 3 min at room temperature and luminescence was measured on a Victor^3 V 1420 multilabel counter (Perkin Elmer) with a 1 second read time using a 700 nm cut-off filter. The EC50 values were calculated from dose response curves from the resulting best-fit equations determined by Microsoft Excel and XLfit 4.1 software. When screening at two fixed concentrations, the results were expressed as % inhibition at 1 μM and 10 μM.

Zluc cells = assay: Cytotoxicity evaluation, CellTiter-Blue Cell Viability Assay; format: cell-based; conditions: read-out: HCV Replicon CC50
Experimental: For cytotoxicity evaluation, Zluc cells were treated with compound as described above, and cell viability was monitored using the CellTiter-Blue Cell Viability Assay (Promega) by adding 20 μL of the assay solution to each well. The plates were then incubated at 37° C./5% CO2 for at least 3 hours.

[1] = Stability in simulated gastric and intestinal fluids; format: in vitro ADME; conditions: 100 μM, 2 hours at 37° C., percent of peak area at time zero
Experimental: Simulated gastric and intestinal fluids containing pepsin and pancreatin respectively were prepared according to the U.S. Pharmacopoeia USP291 procedure (www.pharmacopeia.cn/v29240/usp29nf24s0_ris1s126.html). Test compound (final concentration 100 μM) was incubated in duplicate in the appropriate fluid for 2 hours at 37° C. The samples were quenched with 200 μl cold acetonitrile, vortexed for 30 seconds and then centrifuged at 16,100 g for 10 min. The supernatants were analyzed by HPLC on a C-18 column with UV detection at 252 nm. The time 0 samples were prepared by adding SGF or SIF fluid to the quenching solvent followed by the test compound. Stability of the compound was determined by peak area the test compound after incubation and calculated as percent of the peak area observed at time zero.

[2] = Stability in fresh human whole blood; format: in vitro ADME; conditions: 0.5 μM, percent unchanged
Experimental: (§1) Stability of test compounds were determined in fresh human whole blood with K2EDTA as the anticoagulant (stored refrigerated at 2-8° C. and used within 7 days of receipt). The experiment was conducted with three replicates for each time point. Whole blood, pre-incubated at 37° C. for 10-15 minutes, was fortified with a solution of test compound for a final concentration of 0.5 μM and mixed for 30 sec. At intervals (0, 0.5, 1 and 2 hr), three […] aliquots were combined with 200 μL (each) of an ice-cold solution of the internal standard (carbutamide 500 ng/mL in acetonitrile). The samples were vortexed for 30 sec and then centrifuged at 16,100 g for 5 min. The supernatant was analyzed by LC-MS/MS. The MS peak area ratio of the test compound versus the internal standard was calculated and percent unchanged test compound was calculated for each time point using this ratio.

Stability in mouse blood = format: in vitro ADME; conditions: mouse whole blood, on ice, percent unchanged
Experimental: as §1
The stability in mouse blood was determined on ice at 0, 0.5 and 1 hr as above.

[3] = Stability in rat whole blood; format: in vitro ADME
[4] = Stability in liver and intestinal subcellular fractions (microsomes and S9); format: in vitro ADME, human; conditions: 10 μM, NADPH, 60 min, percent unchanged
Experimental: Stability of test compounds were determined in subcellular fractions (microsomes and S9) of human liver and intestine in duplicate for each matrix. Pooled liver and intestinal microsomal, intestinal and liver S9 proteins (1.0 mg/mL), suspended in incubation buffer (100 mM potassium phosphate, pH […], and 0.1 mM EDTA), were preincubated for 5 min at 37° C. with 10 μM of a test compound from a 10 mM stock solution in DMSO (final DMSO concentration was 0.1%); the reaction was initiated by the addition of NADPH (3 mM final concentration). At specific times (0 and 60 min), 0.1 mL samples were taken and the reaction terminated by the addition of 4 volumes of stop solution (acetonitrile with 500 ng/mL carbutamide as an internal standard). The samples were vortexed for 30 sec and then centrifuged at 16,000 g for 10 min. 100 μL of supernatants were transferred to 96 deep-well plates preloaded with 100 μL distilled water and analyzed after mixing by LC-MS/MS. The MS peak area ratio of the test compound versus the internal standard was calculated and percent unchanged test compound over 60 minutes was calculated using this ratio.

fresh human hepatocytes = assay: Release of active metabolite in fresh human hepatocytes; format: in vitro ADME; conditions: 10 μM
Experimental: Plates of fresh human and mouse hepatocytes were obtained on ice. The medium was removed and replaced with hepatocyte culture medium (William's E supplemented with penicillin-streptomycin, 1% L-glutamine, 1% insulin-transferrin-selenium and 0.1 μM Dexamethasone (Invitrogen) or with Invitro GRO HI medium complemented with Torpedo antibiotics (Celsis)). Cells were left overnight in an incubator at 37° C. to acclimatize to culture and the medium.
Hepatocyte incubations were conducted at a final volume of 0.5 mL hepatocyte culture medium/well (0.8 million cells/well for human and 0.5 million cells/well for mouse; 12 well plate no overlay, collagen coat). Culture medium from overnight incubation of cells was removed and replaced with fresh medium, pre-warmed to 37° C., containing 10 μM of test compound from a stock solution in DMSO (final DMSO concentration was 0.1%). At each specific time point, incubation medium was removed and cell monolayers were carefully washed two times with ice-cold PBS. Following the last wash, all PBS was carefully removed and 1.0 mL of extraction solution (ice-cold 70% methanol/30% water) added. Cells were scraped off and suspended in the extraction solution, transferred to 2 mL polypropylene microfuge tubes and intracellular contents extracted overnight at −20° C.
After the overnight treatment the cellular extracts were prepared by centrifugation at 16,000×g for 10 min to remove cellular debris. The remaining sample was then dried using a refrigerated centrivap concentrator. Dry extracts were reconstituted in 1000 μL of HPLC-grade water and centrifuged at 16,000×g for 10 min. Aliquots (100 μL each) of the supernatant were transferred into a 96 well plate and internal standard (4 ng/mL final concentration) was added as the internal standard (IS) for LC-MS/MS analysis.
The incubation time points were 6, 24 and 48 hours for human hepatocytes and 1, 4, 8, 12 and 24 hours for mouse hepatocytes.

SMILES: CCOc1nc(N)nc2c1ncn2[C@@H]1O[C@@H]2COP(=O)(OC(C)C)O[C@H]2[C@@]1(C)O (single isomer, unassigned) [Compound 1b]
- selectivity index (HCV genotype 1b replicon; HCV replicon assay, Zluc cells): greater than 80
- EC50 (HCV genotype 1b replicon; Zluc cells (Huh-7-derived, HCV genotype 1b replicon, luciferase reporter), 72 hours): 1 to 10 µM
- CC50 (Zluc cells): > 50 µM
- Stability SGF ([1]; simulated gastric fluid with pepsin): 99%
- Stability SIF ([1]; simulated intestinal fluid with pancreatin): 101%
- Stability WB_Human (37° C.; 2 hr) [2]: 103%
- Stability WB_Mouse (ice; 1 hr) (Stability in mouse blood): 96%
- Stability WB_Rat (ice; 1 hr) [3]: 96%
- Stability HIS9 (1 hr) ([4]; HIS9 1.0 mg/mL): 104%
- Stability HIM (1 hr) ([4]; human intestinal microsome 1.0 mg/mL): 102%
- Stability HLS9 (1 hr) ([4]; human liver S9 fraction 1.0 mg/mL): 112%
- Stability HLM (1 hr) ([4]; human liver microsome 1.0 mg/mL): 96%
- FHH TP (6 hr) (fresh human hepatocytes; 6 hr): BLD^a
- FHH TP (24 hr) (fresh human hepatocytes; 24 hr): BLD^a
